Experimental findings from US12544343B2, “Treatment of inflammatory condition in mucous membrane or skin” (MUCOCORT AB, priority 2019, dated 2026) are described below.

Structures are written as SMILES. Entries after “also recorded” stand apart in the source; their conditions may differ.

Data set [1] concerns TNF-α production. Description: TNF-α production by LPS-stimulated human PBMC (ELISA). The data set is classed as cell-based. On the procedure: (§1) Human venous blood was sampled and collected in heparinized vials and mix well by gently inverting the tubes several times. Human peripheral blood mononuclear cells (PBMCs) were isolated by gradient centrifugation using Ficoll-Histopaque®. Cells were washed (centrifuged at 400×g for 10 min) with sterile phosphate-buffered saline (PBS). PBS was discarded, and the cell pellet re-suspended in sterile Dulbecco's Modified Eagle's Medium (DMEM). Cells were then counted by haemocytometer using white blood cell (W.B.C.) diluting fluid: 15 μl of cell suspension was added to 15 μl trypan blue and mixed well. The cell suspension was loaded in a haemocytometer and the cells were counted. The cell concentration was adjusted at 2×10^6 cells/ml with DMEM supplemented with 1% of penicillin-streptomycin solution and 5% human serum. The approximate yield of cells varied between 107-10^8 cells/ml. 1 ml of cell suspension was seeded in a 24 well culture plate. 1 ml propane-1,2-diol diluted in DMEM was added at various concentrations (from 0 to 100 mM). Phytohemagglutinin (PHA), 15 μl, was added to a final concentration of 1 μg/ml. When the effect of different concentrations of PHA were studied (FIG. 1), the range used varied from 0 to 25 μg/ml. The plate was incubated for 24 h at +37° C. and in 5% CO2. The plate was then frozen at −20° C. until further analysis. After thawing the samples, an enzyme-linked immunosorbent assay (ELISA) was performed according to the manufacturer's specifications. In vitro culture of human PBMCs was performed as described above in Example 1. In brief, 1 ml propane-1,2-diol was added to 1 ml PBMC to obtain a range of 30 final concentrations (0 to 100 mM). 15 μl LPS was added to a final concentration of 100 nM and the cell suspension was incubated at 37° C. in 5% CO2 for 24 h. The plate was then frozen in −20° C. until the ELISA analysis. TNF-α production was determined by ELISA using procedures (BioSite, Sweden; Art. No: EA102165) according to the manufacturer's specifications.
In general terms: In an ELISA, binding on a coated surface is turned into a signal by an enzyme label.

The test system of data set [2] is PBMC. The data set is classed as cell-based, human. On the procedure:
This Example investigated whether the inhibition of TNF-α in Example 2 and/or IL-2 in Example 3 was due to cell death of the PBMCs.
PBMCs were isolated from one donor as described in Example 1. 1 ml of 2×10^6 PBMC cells were added to 12 wells in a 24-well plate. 1 ml of 2000 mM propane-1,2-diol was added to two of the wells to get a final concentration of 1000 mM (8% propane-1,2-diol). The same procedure was used to obtain decreasing concentrations of propane-1,2-diol (500 mM (4% propane-1,2-diol), 250 mM (2% propane-1,2-diol), 125 mM (1% propane-1,2-diol), 62.5 mM (0.5% propane-1,2-diol)). After 24 hrs incubation at 37° C. and 5% CO2, 15 μl of each cell culture was mixed with 15 μl of tryptan blue and dead cells out of 100 cells were counted under a light microscope.

Data set [3] concerns IL-2 production. Description: IL-2 production by PHA-stimulated human PBMC (ELISA). As to conditions: 100 mM propane-1,2-diol, 1 μg/ml PHA-stimulated PBMC, FIG. 4. The data set is classed as cell-based. On the procedure: as §1, with “[…] IL-2” for “The plate was incubated for 24 h at +37° C. and in 5% CO2. The plate was then frozen at −20° C. until further analysis. After thawing the samples, an enzyme-linked immunosorbent assay (ELISA) was performed according to the manufacturer's specifications. In vitro culture of human PBMCs was performed as described above in Example 1. In brief, 1 ml propane-1,2-diol was added to 1 ml PBMC to obtain a range of 30 final concentrations (0 to 100 mM). 15 μl LPS was added to a final concentration of 100 nM and the cell suspension was incubated at 37° C. in 5% CO2 for 24 h. The plate was then frozen in −20° C. until the ELISA analysis. TNF-α”

Data set [4] concerns pig oral mucosa. Description: Dehydration effect towards oral mucosa (immersion of tissue in solution). On the procedure:
Fresh pig oral mucosa (300-700 mg) was equilibrated at room temperature at 40% relative humidity (RH), weighed and immersed in 5 ml of the investigated solution for 20 h at room temperature (RT, ˜20-25° C.). The tissue was removed from the solution, dried by blotting and weighed. Finally, it was dried at +40° C. for 24 h.

For the compound `CC(O)CO` (stereo not shown) [propane-1,2-diol], the “inhibition of TNF-α, concentration dependence” value in data set [1] (0 to 100 mM, LPS-stimulated PBMC from 4 individuals, FIGS. 1A-1D) is “concentration-dependent inhibition”. In addition, in data set [1] (100 mM propane-1,2-diol, LPS-stimulated PBMC from 4 individuals, 24 h, FIGS. 1A-1D), the “inhibition of TNF-α at 100 mM” value was “maximal inhibition; also recorded: strong inhibition”. In data set [1] (100 mM, LPS-stimulated PBMCs from 12 different individuals, FIG. 2), the “inhibition of TNF-α in PBMC from 12 individuals” value is listed as “inhibition was observed in all 12 individuals”. Further, in data set [2], the “cell death of peripheral blood mononuclear cells at 5% (w/v)” value is reported as “induced a significant cell death”; the “toxic effect / cell death of PBMCs, up to 1%” value is recorded as “did not have any significant toxic effect”; the “toxic effects / cell death at an amount according to the invention” value is given as “does not have any significant toxic effects”. For the same compound, the “IL-2 production reduced, patient A” value in data set [3] (patient A) is recorded as 53%. Moreover, the “IL-2 production reduced, patient B” value in data set [3] (patient B) is 64%. Also, in data set [4] (propane-1,2-diol solutions at concentration of 1% and 5%), the “dehydration effect at 1% and 5%” value is listed as “No dehydration effect”. Further, the “dehydration effect at 50%, 80% and 100%” value in data set [4] (propane-1,2-diol solutions at concentrations 50%, 80% and 100%) is on record as “dehydration effect was evident”.
